Measurements taken from PMC5137160, “Optical imaging of MMP-12 active form in inflammation and aneurysm” (Scientific Reports, 2016).

Experiments:
[1] = Blood clearance and biodistribution after intravenous administration in wild type mice; type: in vivo; conditions: 1 nmol intravenous, 30 and 60 minutes, compared to probe 1
Description: (§1) Fluorescent probes (one nmol in 100 μL saline) were administered through a jugular vein catheter under inhaled isoflurane anesthesia. Blood samples were collected at various time points after probe administration to monitor blood clearance. Animals were sacrificed at the indicated time points and various organs were harvested. Near-infrared fluorescence reflectance imaging was conducted using an IVIS Spectrum system (Caliper Life Science, Hopkinton, MA) with appropriate excitation (Ex) and emission (Em) filter sets (Ex/Em = 675/720 nm for probe 1 and Ex/Em = 745/800 nm for probes 3 and 4). Fluorescence from 10 μL of blood was converted to % injected dose per gram (% ID/g) using a standard curve derived from serial dilutions of each probe in 10 μL of mouse blood. Tissue fluorescence was quantified as mean efficiency per pixel and was presented as an arbitrary unit (AU) relative to the signal from each probe in 10 μL of mouse blood.

hMMP-12 = test: MMP inhibition assay (Ki); type: biochemical, human
Description: (§2) Human MMP-8, -9, -12 and -13 were produced in the laboratory. Other MMPs were purchased from R&D Systems (Minneapolis, MN). MMP inhibition assays were carried out as previously described. Pro-MMPs were pre-activated by p-aminophenylmercuric acetate following the method described by R&D Systems. Titration experiments were carried out to determine active enzyme concentration for each MMP prior to the assay. For each probe, the percentage of inhibition was determined from five different concentrations in triplicates, chosen to reach a range of 20–80% inhibition. Ki values were determined using the method proposed by Horovitz and Leviski[45].

ADAMTS-5 = target: T1, ADAMTS-5 (Homo sapiens, UniProt Q9UNA0); test: Metalloprotease inhibition assay (Ki); type: biochemical
T1 sequence (Q9UNA0 262-930): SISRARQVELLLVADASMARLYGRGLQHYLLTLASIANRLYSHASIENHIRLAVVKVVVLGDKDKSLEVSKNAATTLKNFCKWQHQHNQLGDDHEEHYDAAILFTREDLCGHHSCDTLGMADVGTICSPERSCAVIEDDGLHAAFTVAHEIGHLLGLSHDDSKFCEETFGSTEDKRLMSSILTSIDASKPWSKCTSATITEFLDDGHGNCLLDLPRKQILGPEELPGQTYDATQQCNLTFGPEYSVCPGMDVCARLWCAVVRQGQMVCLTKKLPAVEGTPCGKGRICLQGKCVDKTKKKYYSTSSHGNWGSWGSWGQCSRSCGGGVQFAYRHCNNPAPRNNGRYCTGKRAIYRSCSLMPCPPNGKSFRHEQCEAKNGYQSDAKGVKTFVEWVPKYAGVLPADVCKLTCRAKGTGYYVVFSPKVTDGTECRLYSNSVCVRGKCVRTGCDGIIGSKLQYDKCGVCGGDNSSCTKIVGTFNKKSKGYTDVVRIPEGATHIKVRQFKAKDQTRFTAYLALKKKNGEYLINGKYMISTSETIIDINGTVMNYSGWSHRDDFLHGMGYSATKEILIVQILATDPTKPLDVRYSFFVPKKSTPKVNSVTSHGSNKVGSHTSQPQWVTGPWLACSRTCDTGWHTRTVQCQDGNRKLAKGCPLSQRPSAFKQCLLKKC

[2] = Stability in mouse blood by HPLC; type: in vitro ADME; conditions: 4 hours at 37 °C
Description: (§3) Probes 1, 2, 3 and control probe 4 were synthesized from phosphinic building blocks whose synthesis was previously reported. Briefly, the elongation of the peptide’s sequence as well as the incorporation of the phosphinic building blocks were performed on solid support using a standard Fmoc strategy. After cleavage from the support, pseudo peptide intermediates were purified and subsequently engaged in a coupling reaction with the appropriate dye-NHS ester. The identity and purity of each optical probe were confirmed by analytical HPLC, mass spectrometry analysis and NMR (for detailed protocols and analytical data see supplemental information). The stability of each probe was confirmed in phosphate buffered saline (PBS). Moreover, the stability of probe 3 and its control, probe 4 were evaluated by HPLC in mouse blood over a period of 4 hours at 37 °C.

MMP-12 active form = MMP-12 active form (Mus musculus, UniProt P34960); test: MMP-12 imaging of carotid aneurysm; type: in vivo; parameters: from tissue; host or cells: CaCl2-induced aneurysmal left carotid artery of apoE-deficient mice (in vivo imaging and cryostat sections); conditions: high fat-fed apoE-/- mice, tissues harvested at 60 minutes after intravenous administration
Description: Carotid aneurysm model: Arterial aneurysm was induced over a 4-week period by exposing the left common carotid artery of apolipoprotein E–deficient (apoE^−/−, n = 7) mice (Jackson Laboratory) to calcium chloride, as described. The opposite carotid artery was exposed to normal saline and served as control for imaging studies. Tissues from a previous study (n = 3)[18] supplemented histologic evaluations.
as §1

Stability in PBS = type: physicochemical
Description: as §3

human MMPs = test: Affinity and selectivity profile toward panel of human MMPs; type: biochemical
Description: as §2

Sequence of MMP-12 active form (P34960 110-473): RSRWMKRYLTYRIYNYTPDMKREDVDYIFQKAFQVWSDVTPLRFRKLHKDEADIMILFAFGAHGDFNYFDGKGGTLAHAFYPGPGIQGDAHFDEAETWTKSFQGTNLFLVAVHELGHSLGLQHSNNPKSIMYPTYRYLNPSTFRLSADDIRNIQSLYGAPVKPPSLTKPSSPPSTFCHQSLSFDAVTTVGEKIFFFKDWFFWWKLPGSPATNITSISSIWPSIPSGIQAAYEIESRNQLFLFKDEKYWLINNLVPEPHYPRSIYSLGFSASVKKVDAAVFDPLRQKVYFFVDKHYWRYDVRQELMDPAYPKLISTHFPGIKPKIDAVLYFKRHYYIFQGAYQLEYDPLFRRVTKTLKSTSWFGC

Structure (SMILES) | residual blood level [1] | Ki (hMMP-12) [nM] | difference in potency towards MMP-12, factor relative to probe 1 (hMMP-12; relative to probe 1) | Ki (ADAMTS-5) [µM] | stability in mouse blood [2] | fluorescence signal in aneurysmal left carotid artery (MMP-12 active form) | stability in PBS (Stability in PBS) | affinity for human MMPs (human MMPs)
CC1(C)C(/C=C/C2=C(Oc3ccc(CCC(=O)NCCCOCCOCCOCCCNC(=O)[C@H](CCC(=O)[O-])NC(=O)[C@H](CCC(=O)O)NC(=O)[C@H](Cc4cc(-c5ccc(-c6cccc(Cl)c6)cc5)no4)CP(=O)(O)c4ccc(Br)cc4)cc3)C(=C/C=C3/N(CCC[N+](C)(C)C)c4ccc(S(=O)(=O)[O-])cc4C3(C)C)/CCC2)=[N+](CCC[N+](C)(C)C)c2ccc(S(=O)(=O)[O-])cc21 [probe 3] | significantly lower residual blood level | 3.4 ± 0.3 | 4 | > 10 | fully stable | significantly higher than the signal in the control, contralateral artery | fully stable | 
CC1(C)C(=CC=C2CCCC(C=CC3=[N+](CCC[N+](C)(C)C)c4ccc(S(=O)(=O)[O-])cc4C3(C)C)=C2Oc2ccc(CCC(=O)NCCCOCCOCCOCCCNC(=O)C(CCC(=O)[O-])NC(=O)C(CCC(=O)O)NC(=O)C(Cc3cc(-c4cccc(Oc5ccccc5)c4)no3)CP(=O)(O)c3ccc(Br)cc3)cc2)N(CCC[N+](C)(C)C)c2ccc(S(=O)(=O)[O-])cc21 (stereo not drawn) [probe 4] |  | 4040 ± 670 |  | > 10 | stable | significantly lower signal |  | no affinity
